# According to publication PMC9603946, “On the Sensitivity of the Virion Envelope to Lipid Peroxidation” (Microbiology Spectrum, 2022):
# pEC50: −log10 of the molar value. Values joined by “and” are separate entries in the source; they are usually repeats but may differ in a detail not shown here. Identical values can stand only once. Like-named read-outs stand apart in the source and are kept apart here. Marks after values point to notes of the source that are not given here.
# Tests used:
# HFF cells = assay: HFF cell viability after 2 h exposure to lipoperoxidators (CellTiter-Glo); settings: HFF
# Procedure: (§1) The cells were washed twice with warm DMEM before a 100 μL lipoperoxidator solution was transferred with a multichannel pipette from the plate containing the drug dilutions in technical triplicates. The cells were incubated with peroxidators for 2 h at 37°C. Then, the medium was removed, and the cells were washed twice with DMEM at 37°C. The plates were cooled down to RT, and the medium was removed. Then, 50 μL phenol red free DMEM and 50 μL CellTiter-glo Luminiscent Cell Viability Assay (Promega, G7571/2/3) were added and mixed in an orbital shaker for 2 min. Afterwards, 80 μL of the mix was transferred onto white 96-well plates and incubated for 10 min at RT for signal stabilization. The luminescence was read in the Glomax Multidetection System (Promega) with an integration time of 0.5 s.
# (§2) The means of the technical triplicates were normalized to the means of the vehicle controls, analyzed via nonlinear regression dose responses, and graphed using GraphPad Prism 9.0. Three or four independent biological replicates were performed for each treatment (n = 3 or 4).
# (§3) To evaluate the effects of lipid soluble antioxidants, 10 μM vitamin E was loaded onto carrier 1% BSA in the dark for 4.5 h at RT. The cells were washed twice with DMEM at 37°C and preloaded with 100 μL of 10 μM vitamin E in BSA carrier for 3 h at 37°C. The cells were washed twice again before the addition of any lipoperoxidators. Peroxidators were then added to the cells at working concentrations and incubated for 2 h at 37°C. The peroxidation solution was then removed, and the cells were washed twice with DMEM before analyzing viability. To evaluate the effects of a water soluble antioxidant, the cells were treated with 10 μM vitamin C (final concentration) simultaneously with the lipoperoxidators.
# [1] = as above; settings: human, HFF cells
# Procedure: as §1, §2, §3
# Vero cells [2] = assay: Vero cell lipid peroxidation probed with liperfluo; format: cell-based, African green monkey; settings: for pEC50: Chlorocebus sabaeus, Vero, Liperfluo probe, read-out: CP50 (the source's name)
# Procedure: (§4) The effects of peroxidators have been commonly evaluated against purified lipids and liposomes as a proxy, but they have not been evaluated against virions ([50], [53][–][55]). We instead directly evaluated the extent of virion lipid peroxidation.
# To evaluate cell lipid peroxidation using liperfluo, 7.5 × 10^3 Vero cells were seeded into each well of 96-well plates and incubated for 18 h at 37°C in 5% CO2. […] Two hours later, the cells were washed twice, and the fluorescence was evaluated in a TECAN Infinite M200 Pro at 515 nm excitation and 545 nm emission.
# (§5) To evaluate the effects of a lipid soluble antioxidant, cells or virions were preloaded with vitamin E-BSA for 3 h at 37°C. Vitamin E-BSA containing medium was removed, and the cells were washed twice with DMEM. Liperfluo (20 or 10 μM for cells or virions, respectively) or C11-Bodipy (1 μM for cells or 0.1 mol% for virions) were preloaded into the cells or virions for 30 min at 37°C.
# (§6) To evaluate the effects of water soluble antioxidants, liperfluo (20 μM for cells or 10 μM for virions) or C11-Bodipy (1 μM for cells or 0.1 mol% for virions) were preloaded into the cells or virions for 30 min at 37°C. […] Fluorescence was evaluated in a TECAN Infinite M200 Pro at 515 nm excitation and 545 nm emission for liperfluo or at 550 nm excitation and 580 to 630 nm emission for C11-Bodipy.
# HSV-1 [3] = assay: HSV-1 virion infectivity (plaquing efficiency) on Vero cells after virion pretreatment; settings: for pEC50: Human alphaherpesvirus 1, Vero
# Procedure: (§7) The inocula were removed, and the cells were washed and then incubated at 37°C in 5% CO2 until plaques were visible and well-resolved (about 2 days), at which time they were fixed and stained with crystal violet.
# (§8) HSV-1 suspensions of 20,000 plaque PFU in 250 μL DMEM were mixed 1:1 with 2-fold serial dilutions of the general peroxidators and were incubated in a water bath for 2 h at 37°C. Next, treated virions were diluted 1:100 before being adsorbed onto cells for 1 h at 37°C. The inocula were removed, and the cells were washed twice with cold DMEM. Infected cells were overlaid with DMEM supplemented with 2% (Vero) or 1% (HFF) methylcellulose and 5% FBS and were incubated at 37°C until plaques were visible and well-resolved, typically in about 2 days. Cell monolayers were fixed and stained with 1% crystal violet in 17% methanol for 18 h at RT. The cells were washed, and the plaques were counted and normalized to those produced by the vehicle treated virions.
# (§9) To test the effects of lipid soluble antioxidants on virions, 10 μM vitamin E loaded onto 1% carrier BSA in the dark for 4.5 h at RT was incubated with 10^6 HSV-1 virions for 3 h at 37°C. […] The treated virions were diluted 1:100 before infecting cells. […] The mix was incubated for 2 h at 37°C, diluted 1:100, and used to infect cells. The infectivity of an aliquot of treated virions was tested via a plaque assay.
# Vero cells [4] = assay: Vero cell lipid peroxidation probed with C11-Bodipy; format: cell-based, African green monkey; settings: C11-Bodipy (Fig. 8)
# Procedure: as §4
# To evaluate Vero cell lipoperoxidation with C11-Bodipy, 7.5 × 10^3 cells were seeded into each well of 96-well plates and incubated for 18 h at 37°C in 5% CO2 before preloading them with 1 μM C11-Bodipy for 30 min at 37°C. […] Two hours later, the cells were washed twice and lysed with DMSO:isopropanol. Fluorescence was evaluated in a TECAN Infinite M200 Pro at 550 nm excitation and 580 to 630 nm emission with the reading peak at 600 nm.
# as §5, §6
# Vero cells [5] = assay: Vero cell viability after 2 h exposure to lipoperoxidators (CellTiter-Glo); settings: Vero
# Procedure: as §1, §2, §3
# [6] = as above; settings: African green monkey, Vero cells, CC50, Vero
# Procedure: as §1, §2, §3
# HSV-1 [7] = assay: HSV-1 virion infectivity (plaquing efficiency) on HFF cells after virion pretreatment; settings: for pEC50: Human alphaherpesvirus 1, HFF
# Procedure: as §7, §8, §9
# HSV-1 virions [8] = assay: HSV-1 virion lipid peroxidation probed with C11-Bodipy; design: species or system HSV-1 KOS; settings: C11-Bodipy (Fig. 8)
# Procedure: as §4
# To evaluate virion lipoperoxidation with C11-Bodipy, 50 μL DMEM containing 5 × 10^6 PFU of HSV-1 was added into each well of 96-well plates. Virions were then preloaded with 0.1 mol % of C11-Bodipy for 30 min at 37°C. […] Fluorescence was evaluated in a TECAN Infinite M200 Pro at 550 nm excitation and 580 to 630 nm emission with the reading peak at 600 nm.
# as §5, §6
# HSV-1 virions [9] = assay: microbe, parasite or virus in culture; design: species or system HSV-1 KOS; settings: virions, at higher AAPH concentrations
# Procedure: as §4
# To evaluate virion peroxidation using liperfluo, 50 μL DMEM that contained 5 × 10^6 PFU of HSV-1 was added to 96-well plates. Virions were then preloaded with 10 μM liperfluo for 20 min at 37°C. […] Fluorescence was evaluated in a TECAN Infinite M200 Pro at 515 nm excitation and 545 nm emission. Medium containing no virus was used as blank.
# as §5, §6
# enveloped viruses = settings: cited from earlier work
# [10] = many months of exposure to light at room temperature; no reference given; cited from earlier work
# HSV-1 [11] = format: cell-based, HSV-1 KOS; settings: for protective effect on infectivity in atmospheric O2: substance alone, without BSA carrier; for drop of viral titers: after 2 h of incubation in atmospheric O2 at 37°C with the substance
# Procedure: To test other oxidative conditions, an HSV-1 suspension was incubated in atmospheric oxygen at 37°C in DMEM without serum. The virions were incubated with the previously used antioxidants (vitamin E-BSA and vitamin C), vitamin E without the carrier, the BSA carrier alone, vitamin C-BSA, cholesterol (another compound with a conjugated ring and alkyl chains but with limited antioxidant activity), or cholesterol-BSA. A plaquing efficiency assay was then performed with the treated virions.
# A time course plaquing efficiency assay was performed with HSV-1 incubated under atmospheric oxidative conditions. Virions (3 × 10^5 PFU) were incubated with vitamin E, vitamin E-BSA, cholesterol, cholesterol-BSA, vitamin C (10 μM final concentration), or the carrier BSA (0.5% final concentration) for 3 h at 37°C in a water bath with atmospheric air (atmospheric O2). Aliquots from each condition were taken every hour and diluted 1:200 to perform plaquing efficiency assays as previously described on the Vero cells.
molecule,measurement,setting,value
"CC(C)(N=NC(C)(C)C(=N)N)C(=N)N.Cl.Cl [AAPH, 2,2′-azobis(2-methylpropionamidine) dihydrochloride]","PI, CC50 (antioxidant)/CC50",HFF cells; vitamin C,1.1
same,"PI, CC50 (antioxidant)/CC50",HFF cells; vitamin E,0.5 ^*
same,CC50 at 2 h,[1],96.7 mM
same,pEC50,Vero cells [2]; no antioxidant,1.05
same,pEC50,Vero cells [2]; vitamin C,1.04
same,pEC50,Vero cells [2]; vitamin E,1.04
same,level of lipoperoxidation detected by liperfluo,"Vero cells [2]; cells, at higher AAPH concentrations",< 2 AU
same,pEC50,"HSV-1 [3]; 2 h, Vero, no antioxidant, virions treated 2 h at 37°C",1.68
same,pEC50,"HSV-1 [3]; Vero, virions preloaded with vitamin E (10 μM, BSA carrier)",1.51
same,concentration of maximal inhibition of virion infectivity,HSV-1 [3]; Vero,100 mM
same,concentration giving a loss of infectivity of about 30%,"HSV-1 [3]; Vero, 2 h at 37°C",25 mM
same,"SI, CC50/EC50","HSV-1 [3]; Vero, vitamin C",0.9
same,minimum inhibitory concentration (MIC) that decreased infectivity in the presence of vitamin C,"HSV-1 [3]; Vero, vitamin C",50 mM
same,"SI, CC50/EC50","HSV-1 [3]; Vero, vitamin E",4.4
same,lowest concentration that decreased virion infectivity in the presence of BSA,"HSV-1 [3]; Vero, with BSA",50 mM
same,lowest effective concentration on infectivity in the presence of the antioxidants,"HSV-1 [3]; Vero, with antioxidants",25 mM
same,lowest concentration affecting cell lipid peroxidation,Vero cells [4],50 to 100 mM
same,concentration of maximal inhibition of cell viability,Vero cells [5],400000 µM
same,lowest concentration that reduced cell viability,Vero cells [5],12.5 mM and 25 mM
same,"PI, CC50 (antioxidant)/CC50",Vero cells [5]; vitamin C,1.3
same,"PI, CC50 (antioxidant)/CC50",Vero cells [5]; vitamin E,2.0 ^*
same,CC50 at 2 h,"[6]; no antioxidant, 2 h at 37°C",69 mM
same,CC50 at 2 h,[6]; with vitamin C (10 μM),88.4 mM
same,concentration giving a loss of infectivity of about 30%,HSV-1 [7]; 2 h at 37°C,12.5 mM
same,pEC50,"HSV-1 [7]; 2 h, no antioxidant, virions treated 2 h at 37°C",1.61
same,pEC50,"HSV-1 [7]; virions preloaded with vitamin E (10 μM, BSA carrier)",1.50
same,"SI, CC50/EC50",HSV-1 [7]; vitamin C,1.7
same,minimum inhibitory concentration (MIC) that decreased infectivity in the presence of vitamin C,HSV-1 [7]; vitamin C,100 mM
same,"SI, CC50/EC50",HSV-1 [7]; vitamin E,3.1
same,lowest concentration affecting virion peroxidation,HSV-1 virions [8],200 mM
same,level of lipoperoxidation detected by liperfluo,HSV-1 virions [9],< 2 AU
C=CCN1C(=O)/C(=C/c2ccc(-c3ccccc3)o2)SC1=S [LJ001],fold over antiviral concentrations at which not cytotoxic,enveloped viruses,≥ 100 fold
"O=c1[nH]c(=O)n([C@@H]2O[C@H](CO)[C@@H](O)[C@@H]2O)cc1C#Cc1ccc2c3cccc4cccc(c5cccc1c52)c43 [aUY11, 5-(Perylen-3-yl) ethynyl-arabino-uridine]",inactivation by light exposure,[10],not inactivated
CC(C)CCC[C@@H](C)[C@H]1CC[C@H]2[C@@H]3CC=C4C[C@@H](O)CC[C@]4(C)[C@H]3CC[C@]12C [cholesterol],protective effect on infectivity in atmospheric O2,HSV-1 [11],no protective effects
"O=C1O[C@H]([C@@H](O)CO)C(O)=C1O [vitamin C, L-ascorbic acid]",drop of viral titers,HSV-1 [11],about 30%
"Cc1c(C)c2c(c(C)c1O)CC[C@@](C)(CCC[C@H](C)CCC[C@H](C)CCCC(C)C)O2 [vitamin E, alpha tocopherol]",protective effect on infectivity in atmospheric O2,HSV-1 [11],no protective effects
same,protection of HSV-1 infectivity against the water soluble peroxidator,"HSV-1 [3]; Vero and HFF (Fig. 5B and F), vitamin E preloading",did not protect
bovine serum albumin [BSA],drop of viral titers,HSV-1 [11],about 30%
same,protection of virion infectivity,HSV-1 [11]; after 3 h of incubation in atmospheric O2,about 30%
